Assay [1] addresses T1, D3 DAR (Homo sapiens, UniProt P35462). Nature of the assay: [3H]-methylspiperone radioligand binding assay. Particulars: indicated concentrations, FIG. 1B. The protocol:
Compounds were tested for their ability to compete with the orthosteric radioligand [^3H]-methylspiperone for binding to the D3 DAR using HEK cells transiently transfected with the D3 DAR as described in the detailed protocol below presented in Table 5. Cells were cultured in Dulbecco's modified Eagle's Medium (Corning, catalogue no. 10-013) containing 10% FBS, 1,000 units/mL Penicillin, […] Streptomycin, 100 mM sodium pyruvate, 1 μg/mL Gentamicin, and […] G418. All cells were maintained at 37° C. in 5% CO2 and 90% humidity. For radioligand binding assays cells were removed mechanically using calcium-free Earle's balanced salt solution (EBSS). Intact cells were collected by centrifugation and then lysed with 5 mM Tris-HCl and 5 mM MgCl2 at pH 7.4. Homogenates were centrifuged at 30,000×g for 30 minutes. The membranes were re-suspended in EBSS (US Biological, catalogue no. E0249-05) pH 7.4 to a concentration of 16 μg/mL. For competition binding studies, membrane preparations were incubated for 90 minutes at room temperature with various concentrations of compound and a single concentration of [^3H]-methylspiperone (Perkin Elmer, NET856) in a reaction volume of […]. Non-specific binding was determined in the presence of 4 μM (+)-butaclamol (Sigma-Aldrich, catalogue no. D033). Bound ligand was separated from unbound by filtration through GF/C filters using a PerkinElmer cell harvester and quantified on a Top-count (PerkinElmer). Ki values were determined using Cheng-Prusoff equation from observed IC50 values and ligand Kd values from separate saturation experiments.

The next assay has as its target D2 DAR (Homo sapiens, UniProt P14416). Nature of the assay: BRET β-arrestin recruitment assay, D2 DAR. It is filed as cell-based. The note with it: FIG. 3A right. How it is done: BRET β-arrestin recruitment assay: As an orthogonal test using an unrelated assay of D2- or D3 DAR-mediated β-arrestin recruitment, an arrestin BRET assay was conducted. HEK293T cells transiently expressing D2-Rluc8, Arrestin3-mvenus and GRK2, or D3-Rluc8, Arrestin3-mvenus, and GRK3 were harvested with EBSS, plated in 96-well plates in Dulbecco's phosphate-buffered saline (DPBS) and incubated at rt for 45 min. […] BRET signal was determined by quantifying and calculating the ratio of the light emitted by mVenus (525 nm) over that emitted by RLuc8 (485 nm) using a PHERAstar FSX Microplate Reader (BMG Labtech).
(In BRET a luciferase serves as donor, and the signal depends on an acceptor being close.)

The target in assay [2] is T1, D3 DAR. Nature of the assay: Go BRET activation assay, D3 DAR. It is filed as cell-based. Particulars: EC80 DA (30 nM). How it is done: Briefly, HEK293T cells transiently expressing either the D2 DAR or D3 DAR and GαoA-Rluc8, untagged-β1, and mVenus-γ2 were harvested with EBSS, plated in 96-well white plates at 20,000 cells/well in DPBS and incubated at RT for 45 min. […] BRET signal was determined by quantifying and calculating the ratio of the light emitted by mVenus (525 nm) over that emitted by RLuc8 (485 nm) using a PHERAstar FSX Microplate Reader (BMG Labtech).

T1 sequence (P35462 whole entry): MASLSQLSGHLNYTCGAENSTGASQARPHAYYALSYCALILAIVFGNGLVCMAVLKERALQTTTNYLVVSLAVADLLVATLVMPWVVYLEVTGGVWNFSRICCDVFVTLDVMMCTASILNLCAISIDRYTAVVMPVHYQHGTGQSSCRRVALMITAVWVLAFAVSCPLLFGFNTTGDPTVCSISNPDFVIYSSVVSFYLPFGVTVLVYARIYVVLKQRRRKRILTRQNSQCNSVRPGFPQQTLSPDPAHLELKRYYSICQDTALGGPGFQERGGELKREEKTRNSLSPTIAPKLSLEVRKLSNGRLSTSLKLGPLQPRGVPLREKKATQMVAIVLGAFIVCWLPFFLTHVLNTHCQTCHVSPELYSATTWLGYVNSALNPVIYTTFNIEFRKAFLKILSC
Chain of D2 DAR (P14416 whole entry): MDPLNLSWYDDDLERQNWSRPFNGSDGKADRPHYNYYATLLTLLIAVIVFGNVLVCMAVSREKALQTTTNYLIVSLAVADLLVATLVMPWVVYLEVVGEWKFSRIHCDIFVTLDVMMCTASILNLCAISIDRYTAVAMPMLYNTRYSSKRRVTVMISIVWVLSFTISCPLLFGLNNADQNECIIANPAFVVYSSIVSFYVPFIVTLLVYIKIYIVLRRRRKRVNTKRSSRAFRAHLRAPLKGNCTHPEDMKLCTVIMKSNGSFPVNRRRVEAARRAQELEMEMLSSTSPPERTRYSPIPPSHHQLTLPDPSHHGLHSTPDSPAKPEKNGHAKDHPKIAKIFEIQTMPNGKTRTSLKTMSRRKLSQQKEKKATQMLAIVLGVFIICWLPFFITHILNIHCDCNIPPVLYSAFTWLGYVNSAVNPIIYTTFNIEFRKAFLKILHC

As a reminder, the IC50 is the concentration that inhibits the measured activity by half. A higher IC50 goes with weaker potency in that assay. Take `Cc1ccc(NS(=O)(=O)c2c(C)[nH]c(C)c2C(=O)N2CCCC2)cc1Cl` [Cmp. 1]: at D3 DAR [1], the “inhibition of [3H]-methylspiperone binding to the D3 DAR” value was “lacks ability to inhibit the binding”. Besides, on D2 DAR, the “antagonist activity at the D2 DAR, BRET β-arrestin” value is given as “lacked antagonist activity”. Further, the Emax at D3 DAR [2] (5 min, read-out: D3 Go BRET Imax) is above 100%. The compound also displayed an IC50 at D3 DAR [2] of 10 to 50 µM.

Source of the values: US20240336604A1 (THE UNITED STATES OF AMERICA, AS REPRESENTED BY THE …, priority 2021, published 2024).
